Experimental data: patent publication US10770169B2, “Method of providing a treatment to a subject based on a dynamic pathway map” (THE REGENTS OF THE UNIVERSITY OF CALIFORNIA, priority 2010, dated 2020)
Read-outs that look alike come from different tables or passages of the source.

Key:
breast cancer cell lines = assay: Association of growth rate and response (2-way ANCOVA); type: cell-based, human
From the text: To assess the effects of cell line class and growth rate on drug sensitivity, we performed a set of 2-way Analysis of Covariance (ANCOVA) tests, one for each of the three cell line classification schemes described above. […] We performed these analyses in R with the functions lm and ANOVA, which is available as part of the car package.

[1] = tested on: TCR-activated CD4(+) T cells; details: cited from earlier work
[2] = tested on: panel of 55 breast cancer cell lines; assay: Cell growth inhibition assay (Cell Titer Glo, 72 h, 9 doses; GI50, TGI, LC50); type: cell-based, human; details: Homo sapiens, read-out: GI50 (converted)
[3] = tested on: luminal, basal, claudin-low and ERBB2AMP breast cancer cell lines; assay: Associations of clinically relevant subtypes and response (non-parametric ANOVA or t-test on GI50 ranks); type: cell-based, human; details: Table 6; most sensitive subtype, FDR p<0.20
Method in brief: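 GI50 values were compared between cell-line subtype groups by non-parametric ANOVA or t-test on ranks. P-values from three test sets were combined and FDR-corrected. Significant three-group effects were followed by post-hoc comparison of each group against all others, and FDR p<0.20 counted as significant.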

O=c1[nH]cc(F)c(=O)[nH]1 [5-FU, 5-florouracil]
significance of subtype and doubling time in ANCOVA model (breast cancer cell lines; listed as 5-florouracil): not significant in the subtype test alone but showed strong significance in the ANCOVA model for both class and doubling time
significance of subtype and doubling time in ANCOVA model (breast cancer cell lines; listed as 5′FU): strong effects of both subtype and growth rate on response
response as a function of doubling time (breast cancer cell lines; luminal and basal cell lines): decreased as doubling time increased in both luminal and basal cell lines

Cc1ccc(NC(=O)c2ccc(CN3CCN(C)CC3)cc2)cc1Nc1nccc(-c2cccnc2)n1 [imatinib]
interferon-gamma production [1]: inhibit interferon-gamma production

CC/C(=C(\c1ccccc1)c1ccc(OCCN(C)C)cc1)c1ccccc1 [Tamoxifen]
GI50 ([2]; 600MPE cell line, censored GI50 values): 47.9 µM
GI50 ([2]; AU565, AU565 cell line, censored GI50 values): 28.8 µM
GI50 ([2]; AU565, cell line AU565): 28.8 µM
GI50 ([2]; BT-474, BT474 cell line, censored GI50 values): 2.4 µM
GI50 ([2]; BT-474, cell line BT474): 2.4 µM
GI50 ([2]; BT-483, BT483 cell line, censored GI50 values): 24 µM
GI50 ([2]; BT-483, cell line BT483): 24 µM
GI50 ([2]; BT-549, cell line BT549): 166 µM
GI50 ([2]; CAMA-1, CAMA1 cell line, censored GI50 values): 34.7 µM
GI50 ([2]; CAMA-1, cell line CAMA1): 34.7 µM
GI50 ([2]; HCC38, HCC38 cell line, censored GI50 values): 52.5 µM
GI50 ([2]; HCC38, cell line HCC38): 52.5 µM
GI50 ([2]; HCC70, cell line HCC70): 166 µM
GI50 ([2]; HCC202, HCC202 cell line, censored GI50 values): 29.5 µM
GI50 ([2]; HCC202, cell line HCC202): 29.5 µM
GI50 ([2]; HCC1143, HCC1143 cell line, censored GI50 values): 16.2 µM
GI50 ([2]; HCC1143, cell line HCC1143): 16.2 µM
GI50 ([2]; HCC1395, HCC1395 cell line, censored GI50 values): 14.5 µM
GI50 ([2]; HCC1395, cell line HCC1395): 14.5 µM
GI50 ([2]; HCC1419, HCC1419 cell line, censored GI50 values): 33.1 µM
GI50 ([2]; HCC1419, cell line HCC1419): 33.1 µM
GI50 ([2]; HCC1428, HCC1428 cell line, censored GI50 values): 3.24 µM
GI50 ([2]; HCC1428, cell line HCC1428): 3.24 µM
GI50 ([2]; HCC1500, HCC1500 cell line, censored GI50 values): 105 µM
GI50 ([2]; HCC1500, cell line HCC1500): 105 µM
GI50 ([2]; HCC1806, HCC1806 cell line, censored GI50 values): 13.2 µM
GI50 ([2]; HCC1806, cell line HCC1806): 13.2 µM
GI50 ([2]; HCC1937, cell line HCC1937): 166 µM
GI50 ([2]; HCC1954, HCC1954 cell line, censored GI50 values): 97.7 µM
GI50 ([2]; HCC1954, cell line HCC1954): 97.7 µM
GI50 ([2]; HCC2185 cell line, censored GI50 values): 14.1 µM
GI50 ([2]; LY2 cell line, censored GI50 values): 56.2 µM
GI50 ([2]; MCF7, MCF7 cell line, censored GI50 values): 102 µM
GI50 ([2]; MCF7, cell line MCF7): 102 µM
GI50 ([2]; MDA-MB-134-VI, MDAMB134VI cell line, censored GI50 values): 83.2 µM
GI50 ([2]; MDA-MB-175-VII, MDAMB175VII cell line, censored GI50 values): 14.5 µM
GI50 ([2]; MDA-MB-415, MDAMB415 cell line, censored GI50 values): 33.9 µM
GI50 ([2]; MDA-MB-436, MDAMB436 cell line, censored GI50 values): 30.9 µM
GI50 ([2]; MDA-MB-453, MDAMB453 cell line, censored GI50 values): 36.3 µM
GI50 ([2]; SK-BR-3, SKBR3 cell line, censored GI50 values): 105 µM
GI50 ([2]; SUM52PE, SUM52PE cell line, censored GI50 values): 91.2 µM
GI50 ([2]; SUM149PT, SUM149PT cell line, censored GI50 values): 102 µM
GI50 ([2]; SUM185PE, SUM185PE cell line, censored GI50 values): 8.91 µM
GI50 ([2]; SUM1315MO2, SUM1315MO2 cell line, censored GI50 values): 100 µM
GI50 ([2]; UACC-893, UACC893 cell line, censored GI50 values): 3.09 µM
GI50 ([2]; ZR-75B, ZR75B cell line, censored GI50 values): 16.2 µM
GI50 ([2]; cell line 600MPE): 47.9 µM
GI50 ([2]; cell line HCC2185): 14.1 µM
GI50 ([2]; cell line HCC3153): 166 µM
GI50 ([2]; cell line LY2): 56.2 µM
Subtype specificity [3]: Luminal
